Active and inactive are the calls of the source. The calls are words filed in the database; no cut-off is given here.
Key:
Format in all cases: functional, cell-based
A204 = test: Cell viability (A204 cells) (CellTiterGlo); settings: Homo sapiens
[1] = target: T1, Bromodomain-containing protein 7 (Homo sapiens, UniProt Q9NPI1); test: Degradation of BRD7 in RI-1 cells (8 h) (Western Blot degradation assay)
T1 sequence (Q9NPI1 whole entry): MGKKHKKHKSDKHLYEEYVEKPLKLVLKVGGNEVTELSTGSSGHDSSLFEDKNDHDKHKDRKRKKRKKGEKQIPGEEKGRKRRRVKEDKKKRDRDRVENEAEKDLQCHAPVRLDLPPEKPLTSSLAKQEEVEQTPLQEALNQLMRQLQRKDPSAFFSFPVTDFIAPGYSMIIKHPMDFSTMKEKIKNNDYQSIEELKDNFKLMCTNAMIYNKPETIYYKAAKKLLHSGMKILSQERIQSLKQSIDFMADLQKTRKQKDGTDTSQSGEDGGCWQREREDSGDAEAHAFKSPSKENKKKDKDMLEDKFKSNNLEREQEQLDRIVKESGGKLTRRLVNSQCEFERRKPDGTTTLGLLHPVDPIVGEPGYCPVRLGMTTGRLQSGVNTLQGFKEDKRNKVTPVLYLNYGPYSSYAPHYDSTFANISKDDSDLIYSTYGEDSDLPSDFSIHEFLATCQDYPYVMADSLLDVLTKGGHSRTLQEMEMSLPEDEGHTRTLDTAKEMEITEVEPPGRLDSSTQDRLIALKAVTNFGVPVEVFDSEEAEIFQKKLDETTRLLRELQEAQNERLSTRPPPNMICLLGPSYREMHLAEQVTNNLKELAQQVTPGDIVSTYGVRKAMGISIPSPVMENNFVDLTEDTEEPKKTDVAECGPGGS

EOL1 = test: Cell viability (EOL-1 cells) (CellTiterGlo); settings: Homo sapiens

DC50 [1]: 4.5 nM (active)
Structure (SMILES): COc1cc(-c2cn(C)c(=O)c3cnccc23)cc(OC)c1CN1CCN(CCCCCOc2cc(-c3scnc3C)ccc2CNC(=O)[C@@H]2C[C@@H](O)CN2C(=O)[C@@H](NC(=O)C2(F)CC2)C(C)(C)C)CC1
EC50 (A204): 39.8 nM (active)
EC50 (EOL1): 3.4 nM (active)

From ChEMBL document CHEMBL5463724, “Data for DCP probe VZ185” (2023)
